Results published in PMC5056396, “Hexokinase I N-terminal based peptide prevents the VDAC1-SOD1 G93A interaction and re-establishes ALS cell viability” (Scientific Reports, 2016).

How the values were obtained:
[1] = system: SOD1 G93A binding to intact mitochondria purified from NSC34 cells; test: Mitochondrial binding assay of SOD1 G93A after pre-incubation with peptide; set-up: species or system mouse; settings: scramble control
Method: The ability of NHK1 to inhibit SOD1 G93A from binding the mitochondrial surface was investigated using intact mitochondria purified from NSC34 cells. Mitochondria were incubated with SOD1 G93A, in the presence or absence of 60 μM NHK1 peptide. […] Following incubation with NHK1, a dramatic decrease of 85% SOD1 G93A bound to mitochondria was seen (Fig. 5D). Again, no effect was found by incubating mitochondria with the ScNHK1 peptide.
Intact mitochondria were purified from NSC34 cells by Mitochondrial isolation kit (Miltenyi Biotech), according with manufacturer’s instructions. Isolated, intact mitochondria, in the storage buffer provided, were quantified by Lowry method. Mitochondria were incubated with 2 μg of purified SOD1 WT or G93A for 1 h at RT, under constant shaking in storage buffer. Alternatively, a pre-incubation with 60 μM NHK1 peptide for 1 h, in the same condition, was performed. Mitochondrial pellet was collected by centrifugation for 2 min at 13000×g. Supernatants were collected, and mitochondrial pellets were lysed using 3% Triton X-100. Proteins in mitochondrial or supernatant fraction were detected by western blot and quantified as explained in Supplementary Information. At least, three independent experiments were performed.

NSC34-SOD1G93A cells = test: Cell viability assay (MTT); type: cell-based, mouse; settings: expression from transfected plasmid
From the text: (§1) In order to analyze the effect of NHK1 peptide in our ALS-like in cellulo system, the subcellular distribution of NHK1 peptide was investigated. NSC34 cells were transiently transfected with a plasmid encoding for a HA-tagged NHK1 peptide and for a mitochondrial-targeted Red Fluorescent Protein (mtDsRED)[18]. […] Then, the NHK1 peptide, as well as the whole HK1 as control, was expressed in NSC34-SOD1G93A or SOD1WT to evaluate its ability to counteract the toxicity mediated by mutSOD1. Literature reports indicate that SOD1 mutants expression in NSC34 cell promote a significative loss of cell viability, accordingly with the specific mutation. […] Therefore, supplementation of NHK1 peptide (or HK1) to NSC34-SOD1G93A cells promotes a recovery of the cell viability.
24 h-induced NSC34-SOD1WT and NSC34-SOD1G93A cells seeded on 24-well plates were transfected using 0,25 μg of pEGFP-N1-HK1 or empty pEGFP-N1 or 0,5 μg of pMCS-mtDsRED-NHK1 or scramble or empty pCMS-mtDsRED. Cell viability was analyzed using 3-(4,5-dimethylthiazol-2-yl)-2,5-diphenyltetrazolium bromide (MTT)[47] (Sigma). A colorimetric assay was performed using the microplate reader Varioskan (Thermo Scientific). Reported data are representative for three sets of independent experiments, each performed in triplicate. Data were statistically analyzed using one-way ANOVA followed by Bonferroni post hoc test. […]

NSC34 cells = test: Subcellular distribution by indirect immunofluorescence; type: cell-based, mouse; settings: HA-tagged NHK1 expressed from plasmid with mtDsRED, transient transfection
From the text: as §1
Plasmids and cell transfection […]
NSC34 cells not transfected or transfected with 0,5 µg of pCMS-mtDsRED-NHK1-HA were fixed in 3.7% formaldehyde and permeabilized using 0.3% Triton X-100. […] Endogenous HK1 was detected in not transfected cells by incubating over-night cells with rabbit anti-HK1 antibody (1:100) (Abcam). NHK1-HA was detected in transfected cells by incubating over-night cells with rabbit anti-HA antibody (1:100) (Santa Cruz Biotechnology, Inc.). […]
examined by fluorescence microscopy. […]

| Sequence | effect on SOD1 G93A bound to mitochondria [1] | effect on cell viability of NSC34-SOD1G93A (NSC34-SOD1G93A cells) | subcellular localization (NSC34 cells) |
| --- | --- | --- | --- |
| FAQLTIALAYY [ScNHK1, scramble peptide (…) synthetized and used as control, reference compound] | no effect | does not change the cell viability |  |
| IAAQLLAYYFT [NHK1, peptide corresponding to residues 2–12 (N-terminal region) of human HK1 protein (…)] |  |  | mainly co-localized with mtDsRED signal |
